Assay results from US9994587B2, “HIV protease inhibitors” (priority 2014, dated 2018).

Assays:
wildtype HIV-1 protease = target: T1, wildtype HIV-1 protease (Human immunodeficiency virus type 1 group M subtype B, UniProt P04585); assay: Assay for inhibition of microbial expressed HIV protease (Pepcleav); type: biochemical; conditions: wild type HIV-1 protease 20 pM, peptide substrate 400 micromolar, pH 5.5; mean of at least two independent experiments
T1 construct: preincubated with the HIV-1 protease (wild type) enzyme in assay buffer; made in house; host or cells: Escherichia coli
How it was run: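 E. coli-expressed enzyme preincubated with inhibitor 30 min at room temperature in 50 mM sodium acetate pH 5.5, 100 mM NaCl, 0.1% BSA, then 400 micromolar peptide substrate added with 20 picomolar protease (final), 1 h at 30° C. Product quantified by LC-MS/MS peak area after formic acid/indinavir quench.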

HIV-1 (NL4-3 strain) = assay: Viral Kinetics GFP Reporter (ViKinG) assay; type: cell-based; conditions: Human immunodeficiency virus 1, NL43; 50% NHS; MT4-GFP cells infected with HIV-1 NL4-3; mean of at least two independent experiments
Description: Viral Kinetics GFP Reporter (ViKinG) Assay
The ViKinG assay is an in vitro kinetic assay that employs the MT4-gag-GFP reporter cell line (Wang et al., “Assessment of the susceptibility of mutant HIV-1 to antiviral agents.” J Virological Methods 165:230-37 (2010)) to quantify the number of new cells infected in each round of replication. The purpose of the ViKinG assay is to identify agents that inhibit HIV progression. Briefly, HIV infection results in tat transactivation of the stably expressed HIV LTR promoter to drive gagGFP expression. Thus, an increase in the number of GFP-MT4 cells results following HIV infection.
MT4-GFP cells (250,000 cells/ml) were bulk-infected with HIV-1 (NL4-3 strain) at low multiplicity of infection (MOI) in RPMI+10% FBS for 24 hours. Cells were then washed once in RPMI+10% FBS and resuspended RPMI+10% or 50% normal human serum (NHS). Test compounds were serial-diluted in DMSO on an ECHO® liquid handling platform (Labcyte Corp., Sunnyvale, Calif.), along with a triple drug control (integrase, protease and NNRTI compounds). The infected MT4-GFP cells were added to a 384-well poly-D-lysine coated black plate with clear bottom in which the diluted test compounds were placed. The cells were seeded at 8,000 cells per well and the final DMSO concentration was 0.4%. The infected cells (Green GFP cells) were quantified at both 24 and 48 hours post incubation using Acumen® eX3 (TTP Labtech Ltd., Hertfordshire, United Kingdom). Viral reproductive ratio (R0) was determined using the number of infected cells at 48 hours divided by the number of infected cells at 24 hours. Percent viral growth inhibition was calculated by [1−(R−Rtripledrug)/(RDMSO−Rtripledrug)]*100. Compound potency IP or IC50 was determined by a 4-parameter dose response curve analysis.

Structure (SMILES) | IC50 (wildtype HIV-1 protease) | IC50 (HIV-1 (NL4-3 strain))
N[C@H](C(=O)Nc1cccc(F)c1CC[C@@H]1CNC[C@@H](CSc2nnc(-c3ccncc3)o2)O1)C(c1ccc(F)cc1)c1ccc(F)cc1 [Example 91, 4-fluoro-β-(4-fluorophenyl)-N-(3-fluoro-2-{2-[(2R,6S)-6-{[(5-pyridin-4-yl-1,3,4-oxadiazol-2-yl)sulfanyl]methyl}morpholin-2-yl]ethyl}phenyl)-L-phenylalaninamide] | 0.25 nM | 20 nM
CS(=O)(=O)N1CCC2(CC1)CNC[C@@H](CCc1c(F)cccc1NC(=O)[C@@H](N)[C@@H](c1ccc(Cl)cc1)c1cc(F)cc(F)c1)O2 [Example 93, (βS)-4-chloro-β-(3,5-difluorophenyl)-N-(3-fluoro-2-{2-[(2R)-9-(methylsulfonyl)-1-oxa-4,9-diazaspiro[5.5]undec-2-yl]ethyl}phenyl)-L-phenylalaninamide] | 11 nM | 46 nM
COC(=O)N[C@H](C(=O)Nc1cccc(F)c1CC[C@@H]1CNCC2(CCN(S(C)(=O)=O)CC2)O1)[C@@H](c1ccc(Cl)cc1)c1cc(F)cc(F)c1 [Example 94, methyl {(1 S,2S)-2-(4-chlorophenyl)-2-(3,5-difluorophenyl)-1-[(3-fluoro-2-{2-[(2R)-9-(methylsulfonyl)-1-oxa-4,9-diazaspiro[5.5]undec-2-yl]ethyl}phenyl)carbamoyl]ethyl}carbamate] | 11 nM | 42 nM
COC(=O)N[C@H](C(=O)Nc1cncc(F)c1CC[C@@H]1CNCC2(CCOCC2)O1)[C@@H](c1ccc(Cl)cc1)c1cc(F)cc(F)c1 [Example 98, methyl {(1S,2S)-2-(4-chlorophenyl)-2-(3,5-difluorophenyl)-1-[(4-{2-[(2R)-1,9-dioxa-4-azaspiro[5.5]undec-2-yl]ethyl}-5-fluoropyridin-3-yl)carbamoyl]ethyl}carbamate] | 29 nM | 88 nM
N[C@H](C(=O)Nc1cccc(F)c1CC[C@@H]1CNC[C@@H](COC(=O)NCC(F)(F)F)O1)C(c1ccc(F)cc1)c1ccc(F)cc1 [Example 99, 4-fluoro-β-(4-fluorophenyl)-N-(3-fluoro-2-{2-[(2R,6S)-6-({[(2,2,2-trifluoroethyl)carbamoyl]oxy}methyl)morpholin-2-yl]ethyl}phenyl)-L-phenylalaninamide] | 15 nM | 59 nM
N[C@H](C(=O)Nc1cncc(F)c1CC[C@@H]1CNC[C@@H](CSc2nnc(-c3ccncc3)o2)O1)C(c1ccc(F)cc1)c1ccc(F)cc1 [Example 103, (S)-2-amino-N-(5-fluoro-4-(2-((2R,6S)-6-(((5-(pyridin-4-yl)-1,3,4-oxadiazol-2-yl)thio)methyl)morpholin-2-yl)ethyl)pyridin-3-yl)-3,3-bis(4-fluorophenyl)propanamide] | 0.49 nM | 37 nM
N[C@H](C(=O)Nc1cccc(F)c1CC[C@@H]1CNCC2(CCOCC2)O1)[C@@H](c1ccc(Cl)cc1)C1CCOCC1 [Example 159, (βR)-4-chloro-N-(2-{2-[(2R)-1,9-dioxa-4-azaspiro[5.5]undec-2-yl]ethyl}-3-fluorophenyl)-β-(tetrahydro-2H-pyran-4-yl)-L-phenylalaninamide] | – | 490 nM
COC(=O)N[C@H](C(=O)Nc1cncc(F)c1CC[C@@H]1CNCC2(CCOCC2)O1)[C@@H](c1ccc(Cl)cc1)C1CCOCC1 [Example 160, methyl[(1S,2R)-2-(4-chlorophenyl)-1-[(4-{2-[(2R)-1,9-dioxa-4-azaspiro[5.5]undec-2-yl]ethyl}-5-fluoropyridin-3-yl)carbamoyl]-2-(tetrahydro-2H-pyran-4-yl)ethyl]carbamate] | – | 350 nM
COC(=O)N[C@H](C(=O)Nc1cccc(F)c1CC[C@@H]1CNCC2(CCOCC2)O1)[C@@H](c1ccc(Cl)cc1)C1CCOCC1 [Example 161, methyl[(1S,2R)-2-(4-chlorophenyl)-1-[(2-{2-[(2R)-1,9-dioxa-4-azaspiro[5.5]undec-2-yl]ethyl}-3-fluorophenyl)carbamoyl]-2-(tetrahydro-2H-pyran-4-yl)ethyl]carbamate] | – | 130 nM
N[C@H](C(=O)Nc1cccc(F)c1CC[C@@H]1CNCC2(CCOC2)O1)[C@@H](c1ccc(Cl)cc1)c1cc(F)cc(F)c1 (stereo partly drawn) [Example 162, (βS)-4-chloro-β-(3,5-difluorophenyl)-N-(2-{2-[(7R)-2,6-dioxa-9-azaspiro[4.5]dec-7-yl]ethyl}-3-fluorophenyl)-L-phenylalaninamide] | – | 180 nM
COC(=O)N[C@H](C(=O)Nc1cccc(F)c1CC[C@@H]1CNCC2(CCOC2)O1)[C@@H](c1ccc(Cl)cc1)c1cc(F)cc(F)c1 (stereo partly drawn) [Example 163, methyl{(1S,2S)-2-(4-chlorophenyl)-2-(3,5-difluorophenyl)-1-[(2-{2-[(7R)-2,6-dioxa-9-azaspiro[4.5]dec-7-yl]ethyl}-3-fluorophenyl)carbamoyl]ethyl}carbamate] | – | 150 nM
